This is an account of results in ChEMBL document CHEMBL1142040, “Melanocortin subtype-4 receptor agonists containing a piperazine core with substituted aryl sulfonamides” (Bioorg Med Chem Lett, 2005).

SMILES strings stand for the structures. Where “and” joins values, the source holds several entries; their conditions need not be identical. Identical values can stand only once.

In series [1] the target is T1, Melanocortin receptor 4 (Homo sapiens, UniProt P32245). The series is described as follows: In vitro inhibitory concentration required against melanocortin 4 receptor using [125I]NDP-MSH as radioligand.
T1 sequence (P32245 whole entry): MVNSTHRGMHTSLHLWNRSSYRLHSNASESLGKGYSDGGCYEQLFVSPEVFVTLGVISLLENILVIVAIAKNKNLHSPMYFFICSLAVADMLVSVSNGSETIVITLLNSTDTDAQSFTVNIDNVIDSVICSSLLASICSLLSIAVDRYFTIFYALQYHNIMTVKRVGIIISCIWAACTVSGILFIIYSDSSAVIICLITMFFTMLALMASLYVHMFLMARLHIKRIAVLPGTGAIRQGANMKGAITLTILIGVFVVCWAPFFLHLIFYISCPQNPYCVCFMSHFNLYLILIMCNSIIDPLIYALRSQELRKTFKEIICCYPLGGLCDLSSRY
For series [2], the target named is T1, Melanocortin receptor 4. The series is described as follows: Effective concentration determined against melanocortin-4 receptor. The class given is functional.
In series [3] the target is Melanocortin receptor (M4 and M5) (Homo sapiens) (UniProt P32245+P33032). The series is described as follows: Selectivity for melanocortin 4 receptor compared to melanocortin 5 receptor in vitro. The format is functional.
Melanocortin receptor (M4 and M5) (Homo sapiens), sequence (P32245 whole entry, looked up): as the sequence (P32245 whole entry) above
Melanocortin receptor (M4 and M5) (Homo sapiens), sequence (P33032 whole entry, looked up): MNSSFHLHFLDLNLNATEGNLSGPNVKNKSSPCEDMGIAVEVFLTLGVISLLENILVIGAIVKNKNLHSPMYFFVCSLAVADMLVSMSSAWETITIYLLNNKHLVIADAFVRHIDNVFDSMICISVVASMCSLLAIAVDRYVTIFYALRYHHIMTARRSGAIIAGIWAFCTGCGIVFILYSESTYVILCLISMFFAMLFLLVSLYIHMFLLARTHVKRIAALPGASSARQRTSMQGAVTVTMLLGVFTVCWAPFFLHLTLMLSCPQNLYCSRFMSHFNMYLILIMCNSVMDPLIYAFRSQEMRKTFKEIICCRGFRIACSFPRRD
The target of a further series is Melanocortin receptor 3 (Homo sapiens, UniProt P41968). The series is described as follows: Effective concentration determined against melanocortin-3 receptor. The class given is functional.
Melanocortin receptor 3, sequence (P41968 whole entry): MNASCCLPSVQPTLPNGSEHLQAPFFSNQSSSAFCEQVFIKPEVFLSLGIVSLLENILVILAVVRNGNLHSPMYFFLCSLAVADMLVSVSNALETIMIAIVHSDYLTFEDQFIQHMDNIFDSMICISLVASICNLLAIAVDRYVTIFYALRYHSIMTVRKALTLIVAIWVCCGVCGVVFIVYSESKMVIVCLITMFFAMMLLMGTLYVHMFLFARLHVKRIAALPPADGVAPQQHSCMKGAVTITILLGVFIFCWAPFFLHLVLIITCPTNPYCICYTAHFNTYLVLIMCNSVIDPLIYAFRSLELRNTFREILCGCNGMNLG
Another series has as its target Melanocortin receptor 5 (Homo sapiens, UniProt P33032). The series is described as follows: Effective concentration determined against melanocortin-5 receptor. The format is functional.
Series [4] in a line: Bioavailability concentration of compound was determined in mice. The class given is ADME, organism-based. As to conditions: mouse, in vivo.
The nature of series [5]: Maximum plasma level concentration was determined in mice. The format is ADME, organism-based. As to conditions: mouse.
A short description of series [6]: Tmax of compound was determined in mice. The format is ADME. As to conditions: mouse, in vivo.
The nature of series [7]: Brain concentration of compound was determined in mice. The format is ADME. As to conditions: mouse, in vivo.
A short description of series [8]: Clearance value of compound was determined in mice. As to conditions: mouse, in vivo. The class given is ADME, organism-based.
A short description of series [9]: Half life of compound was determined in mice. The class given is ADME. As to conditions: mouse, in vivo.
Series [10] is described as follows: Volume of distribution of compound was determined in mice. The class given is ADME, organism-based. As to conditions: mouse, in vivo.

Melanocortin receptor 5, sequence (P33032 whole entry): as the sequence (P33032 whole entry, looked up) above

A word on the IC50: it is the concentration that inhibits the measured activity by half. The low end stands for inhibition by little substance, the high end for a need for much substance. For orientation: EC50 means the concentration needed to bring the measured effect to its halfway point. Read a low EC50 as greater potency. `CS(=O)(=O)N(CC1CC1)c1ccccc1N1CCN(C(=O)[C@@H](Cc2ccc(Cl)cc2)NC(=O)c2cnc3ccccc3c2)CC1` showed a concentration for half-maximal inhibition (IC50) on Melanocortin receptor 4 [1] of 94 nM. This molecule also showed an EC50 on Melanocortin receptor 4 [2] of 60 nM.

As for `CC(C)CCN1CC(C(=O)N[C@H](Cc2ccc(Cl)cc2)C(=O)N2CCN(c3ccccc3N(CC3CC3)S(C)(=O)=O)CC2)C1`, the IC50 at Melanocortin receptor 4 [1] came out at 83 nM. At Melanocortin receptor 4 [2], this molecule returned an EC50 of 49 nM.

In turn, `CS(=O)(=O)N(CCN)c1ccccc1N1CCN(C(=O)[C@@H](Cc2ccc(Cl)cc2)NC(=O)[C@@H]2Cc3ccccc3CN2)CC1` yielded a Selectivity in [3] of 79. For the same molecule, the half-inhibitory concentration (IC50) on Melanocortin receptor 4 [1] came to 35 nM. For the same molecule, the concentration giving a half-maximal response (EC50) is > 10000 nM at Melanocortin receptor 3, < 0.1 nM at Melanocortin receptor 4 [2] and 79 nM at Melanocortin receptor 5.

Take `CS(=O)(=O)N(CC1CC1)c1ccccc1N1CCN(C(=O)[C@@H](Cc2ccc(Cl)cc2)NC(=O)C2CN(C3CCCCC3)C2)CC1`: the 50% inhibitory concentration (IC50) on Melanocortin receptor 4 [1] is 67 nM. Moreover, the half-maximal effective concentration (EC50) on Melanocortin receptor 4 [2] came to 1.8 nM.

`CS(=O)(=O)N(CC1CC1)c1ccccc1N1CCN(C(=O)[C@@H](Cc2ccc(Cl)cc2)NC(=O)[C@@H]2Cc3ccccc3CN2)CC1` registered a Selectivity in series [3] of 170. The molecule further came in with a concentration for half-maximal inhibition (IC50) on Melanocortin receptor 4 [1] of 61 nM. Also, the 50% effective concentration (EC50) on Melanocortin receptor 3 was 7000 nM; at Melanocortin receptor 4 [2], 0.58 nM and 0.6 nM; at Melanocortin receptor 5 it was 170 nM.

On Melanocortin receptor 4 [1], `CS(=O)(=O)N(CC1CC1)c1ccccc1N1CCN(C(=O)[C@@H](Cc2ccc(Cl)cc2)NC(=O)c2ccc3ccccc3c2)CC1` returned an IC50 of 280 nM. For the same molecule, the EC50 on Melanocortin receptor 4 [2] is 63 nM.

In [3], `CS(=O)(=O)Nc1ccccc1N1CCN(C(=O)[C@@H](Cc2ccc(Cl)cc2)NC(=O)[C@@H]2Cc3ccccc3CN2)CC1` showed a Selectivity of 21. The same molecule came in with a 50% inhibitory concentration (IC50) on Melanocortin receptor 4 [1] of 340 nM. In addition, the concentration giving a half-maximal response (EC50) on Melanocortin receptor 3 is > 10000 nM; at Melanocortin receptor 4 [2], 11 nM; at Melanocortin receptor 5, 230 nM.

Turning to `O=C(N[C@H](Cc1ccc(Cl)cc1)C(=O)N1CCN(c2ccccc2NS(=O)(=O)Cc2ccccc2)CC1)[C@@H]1Cc2ccccc2CN1`, the IC50 at Melanocortin receptor 4 [1] worked out at 720 nM. For the same molecule, on Melanocortin receptor 4 [2], the half-maximal effective concentration (EC50) came out at 65 nM.

For the molecule `CN(c1ccccc1N1CCN(C(=O)[C@@H](Cc2ccc(Cl)cc2)NC(=O)[C@@H]2Cc3ccccc3CN2)CC1)S(C)(=O)=O`, the IC50 on Melanocortin receptor 4 [1] came to 210 nM. The molecule also had an EC50 at Melanocortin receptor 4 [2] of 4 nM.

On Melanocortin receptor 4 [1], `O=C(N[C@H](Cc1ccc(Cl)cc1)C(=O)N1CCN(c2ccccc2NS(=O)(=O)c2ccccc2)CC1)[C@@H]1Cc2ccccc2CN1` had a concentration for half-maximal inhibition (IC50) of 730 nM. The concentration for a half-maximal effect (EC50) on Melanocortin receptor 4 [2] came to 120 nM.

The molecule `CS(=O)(=O)N(CC1CC1)c1ccccc1N1CCN(C(=O)[C@@H](Cc2ccc(Cl)cc2)NC(=O)c2ccc3ncccc3c2)CC1` yielded an IC50 at Melanocortin receptor 4 [1] of 29 nM. The molecule further had a concentration for a half-maximal effect (EC50) on Melanocortin receptor 4 [2] of 27 nM.

`CN1CCC(C(=O)N[C@H](Cc2ccc(Cl)cc2)C(=O)N2CCN(c3ccccc3N(CC3CC3)S(C)(=O)=O)CC2)CC1` registered a concentration for half-maximal inhibition (IC50) on Melanocortin receptor 4 [1] of 120 nM. Besides, the midpoint of the response at Melanocortin receptor 4 [2], the EC50, lay at 12 nM.

With `CS(=O)(=O)N(CC1CC1)c1ccccc1N1CCN(C(=O)[C@@H](Cc2ccc(Cl)cc2)NC(=O)c2cc3ccccc3cn2)CC1`, at Melanocortin receptor 4 [1], the IC50 worked out at 410 nM. Further, on Melanocortin receptor 4 [2], the concentration giving a half-maximal response (EC50) is 18 nM.

The bioavailability is the share of a dose that reaches the circulation, judged against a reference dose that is usually intravenous. A low value points to little systemic uptake. What is called Cmax is the maximum level reached in the sampled fluid or tissue. In general, Tmax refers to the time at which the peak concentration occurs. With `CCCN(c1ccccc1N1CCN(C(=O)[C@@H](Cc2ccc(Cl)cc2)NC(=O)[C@@H]2Cc3ccccc3CN2)CC1)S(C)(=O)=O`, the bioavailability in series [4] is 20%. Besides, the Cmax in series [5] stood at 1400 ng/mL. For the same molecule, the time of peak concentration (Tmax) in series [6] amounted to 15 min. In addition, the Cbrain in [7] stood at 130 ng/g. The EC50 is > 10000 nM on Melanocortin receptor 3, 0.44 nM at Melanocortin receptor 4 [2] and 210 nM at Melanocortin receptor 5. This molecule also yielded a Cl/F in [8] of 30 mL/min/kg. In addition, the T1/2 in [9] turned out to be 26.4 min. In series [10], this molecule registered a V2/F of 19 L/kg.

As to `CCN1CCC(C(=O)N[C@H](Cc2ccc(Cl)cc2)C(=O)N2CCN(c3ccccc3N(CC3CC3)S(C)(=O)=O)CC2)CC1`, the IC50 on Melanocortin receptor 4 [1] was 110 nM. The molecule further yielded an EC50 on Melanocortin receptor 4 [2] of 8.6 nM.
